Reference: patent US20060058350A1, “Alkynyl-substituted azasugar derivative and drug containing the same as the active ingredient” (Carna Biosciences, Inc., priority 2002, published 2006)

Key:
Type in all cases: biochemical
[1] = target: T1, TNF-α converting enzyme (TACE) (Homo sapiens, UniProt P78536); test: Measurement of inhibitory activity against TNF-α converting enzyme (TACE), fluorescence quenching peptide substrate
T1 construct: a DNA fragment cording a signal region, a pro-region and a catalytic region was amplified by a PCR method; FLAG octapeptide (C); made in house; host or cells: insect cells (baculovirus, pFastBac)
T1 sequence (P78536 223-474 limits assumed): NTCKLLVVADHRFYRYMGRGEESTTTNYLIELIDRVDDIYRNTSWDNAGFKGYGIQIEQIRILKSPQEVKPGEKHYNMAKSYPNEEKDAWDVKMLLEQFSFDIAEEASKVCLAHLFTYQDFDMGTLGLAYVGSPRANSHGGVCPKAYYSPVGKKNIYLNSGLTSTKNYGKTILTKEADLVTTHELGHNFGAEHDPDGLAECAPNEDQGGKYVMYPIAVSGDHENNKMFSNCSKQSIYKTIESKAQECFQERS
Experimental: A full length cDNA for TACE was cloned from THP-1 cells derived from human acute monocytic leukemia and a DNA fragment cording a signal region, a pro-region and a catalytic region was amplified by a PCR method. An appropriate restriction enzyme recognizing sequence was added to both terminals of the amplified fragment and also a sequence of an antigenic octapeptide (FLAG™) tag was inserted in the 3′ terminal. A recombinant bacmid was prepared from the resulting amplified fragment using a pFastBac system (Life Technologies) and then transfected into insect cells to generate a recombinant baculovirus. Insect cells were infected with the recombinant baculovirus and the recombinant TACE released into culture supernatant was purified by an affinity gel column.
The inhibitory activity was measured according to the method by Van Dyke et al. [Bioorg. […] A solution prepared by dissolving each of test compounds (a) to (f) in dimethylsulfoxide was diluted with a reaction buffer [20 mM tris-HCl buffer (pH 7.5) containing 0.05% Brij-35®] and then 40 μL of the dilute solution was added in a well. […] The inhibition rate (%) at each concentration of an inhibitor was calculated and an IC50 value was determined from the dose-response curve. From this IC50 value and previously determined Km value for a TACE substrate, a Ki value was calculated using data processing software (GraphPad Prism™, GraphPad Software, Inc.).

MMP-9 = target: T2, MMP-9 (Homo sapiens, UniProt P14780); test: Measurement of matrix metalloprotease (MMP) inhibitory activity, MMP-9, fluorescence quenching peptide substrate; conditions: read-out: Ki MMP9
T2 construct: A DNA fragment coding for catalytic regions in MMP-1 and MMP-9; histidine tag (N); made in house; host or cells: E. coli
T2 sequence (P14780 107-444 limits assumed): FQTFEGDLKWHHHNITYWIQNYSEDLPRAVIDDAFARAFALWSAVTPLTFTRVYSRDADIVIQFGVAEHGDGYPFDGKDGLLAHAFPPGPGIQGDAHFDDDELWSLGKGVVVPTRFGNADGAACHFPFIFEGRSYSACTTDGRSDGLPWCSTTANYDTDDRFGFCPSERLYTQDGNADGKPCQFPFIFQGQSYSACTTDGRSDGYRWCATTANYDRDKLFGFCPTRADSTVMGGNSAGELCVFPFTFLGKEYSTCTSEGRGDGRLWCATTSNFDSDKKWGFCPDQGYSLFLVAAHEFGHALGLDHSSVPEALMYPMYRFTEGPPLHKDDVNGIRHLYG
Experimental: (§1) A DNA fragment coding for catalytic regions in MMP-1 and MMP-9 was amplified by a PCR method with cDNA prepared from HT-1080 cells derived from human fibrosarcoma. In the same manner, a DNA fragment containing a pro-region and a catalyst region in MMP-3 was also prepared. The amplified DNA fragment was cloned into a commercially available expression vector which was designed to allow a histidine tag to add to the N-terminal, and then transformed into E. coli. The resulting transformants were cultured and a recombinant MMP was purified from a cell lysate using Ni-NTA regin (QIAGEN INC.). Recombinant MMP-3 was further activated by reacting with 1 mM para-aminophenyl mercury acetate at 37° C. for one hour.
(§2) The inhibitory activity was measured according to the method by Night et al. [FEBS Lett. 296, p 263 (1992)] or the method by Nagase et al. [J. Biol. Chem. 269, p 20952 (1994)] using a 96-half well black microplate. A solution prepared by dissolving each of test compounds (a) to (f) in dimethyl sulfoxide was diluted with a reaction buffer [50 mM Tris-HCl (pH 7.5) buffer containing 150 mM NaCl, 10 mM CaCl2, 0.05% Brij-35®] and then 25 μL of the dilute solution was added in a well.
(§3) After 25 μL of a MMP solution diluted with the reaction buffer was added thereto, the mixture was incubated at 37° C. for 10 minutes. Then, the reaction was initiated by adding 50 μL of a 10 μM fluorescence quenching peptide substrate prepared from the reaction buffer. As the fluorescence quenching peptide substrate, MCA-Pro-Leu-Gly-Leu-DPA-Ala-Arg-NH2 (MCA=7-methoxycoumarin-4-acetyl and DPA=N-3-(2,4-dinitrophenyl)-L-2,3-diaminopropionyl) were used for MMP-1 and MMP-9, and MCA-Arg-Pro-Lys-Pro-Val-Nva-Trp-Arg-Lys (DNP)-NH2 (DNP=2,4-dinitrophenyl) was used for MMP-3. A fluorescence intensity (excitation 320/fluoresecence 405 nm) immediately after the initiation of the reaction and a fluorescence intensity after the reaction at 37° C. (for 2 hours for MMP-1 and MMP-3, for 3 hours for MMP-9) were measured and a difference in fluorescence intensity was taken as an indicator of enzymatic activity. The inhibition rate (%) at each concentration of an inhibitor was calculated and an IC50 value was determined from the dose-response curve. From this IC50 value and previously determined Km value for a […] substrate, a Ki value was calculated using GraphPad Prism software (GraphPad Software, Inc.).

MMP-1 = target: T3, MMP-1 (Homo sapiens, UniProt P03956); test: Measurement of matrix metalloprotease (MMP) inhibitory activity, MMP-1, fluorescence quenching peptide substrate; conditions: recombinant catalytic region of MMP-1; 37° C., 2 hours; Ki calculated from IC50 and Km; read-out: Ki MMP1
T3 construct: A DNA fragment coding for catalytic regions in MMP-1 and MMP-9; histidine tag (N); made in house; host or cells: E. coli
T3 sequence (P03956 98-276 limits assumed): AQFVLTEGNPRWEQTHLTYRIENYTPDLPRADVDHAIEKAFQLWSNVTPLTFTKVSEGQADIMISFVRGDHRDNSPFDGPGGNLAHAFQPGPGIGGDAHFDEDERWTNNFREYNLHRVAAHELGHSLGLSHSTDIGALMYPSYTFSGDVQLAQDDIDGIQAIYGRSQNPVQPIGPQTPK
Experimental: as §1, §2, §3

MMP-3 = target: T4, MMP-3 (Homo sapiens, UniProt P08254); test: Measurement of matrix metalloprotease (MMP) inhibitory activity, MMP-3, fluorescence quenching peptide substrate; conditions: recombinant MMP-3 activated with para-aminophenyl mercury acetate; 37° C., 2 hours; Ki calculated from IC50 and Km; read-out: Ki MMP3
T4 construct: a DNA fragment containing a pro-region and a catalyst region in MMP-3 was also prepared; histidine tag (N); made in house; host or cells: E. coli
T4 sequence (P08254 100-272 limits assumed): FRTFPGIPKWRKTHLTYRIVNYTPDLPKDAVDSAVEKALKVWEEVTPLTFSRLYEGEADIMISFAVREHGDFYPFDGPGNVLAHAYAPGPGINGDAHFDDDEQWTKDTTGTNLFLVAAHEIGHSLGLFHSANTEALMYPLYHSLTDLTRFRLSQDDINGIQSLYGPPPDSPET
Experimental: as §1, §2, §3

SMILES	Ki [1] [nM]	Ki (MMP-9) [nM]	Ki (MMP-1) [nM]	Ki (MMP-3) [nM]
CC#CCOc1ccc(S(=O)(=O)N2C[C@H](O)[C@H](O)[C@@H](OCc3ccccc3)[C@@H]2C(=O)NO)cc1 [Compound (b), (2R,3S,4S,5S)-3-benzyloxy-1-(4′-but-2′-ynyloxybenzenesulfonyl)-4,5-dihydroxypiperidine-2-carboxylic acid hydroxamide]	9.4	> 790	> 850	> 650
CC#CCOc1ccc(S(=O)(=O)N2C[C@H](O)[C@H](O)[C@@H](O)[C@@H]2C(=O)NO)cc1 [Compound (d), (2R,3S,4S,5S)-1-(4′-but-2′-ynyloxybenzenesulfonyl)-3,4,5-trihydroxy-piperidine-2-carboxylic acid hydroxamide]	–	> 790	> 850	490
CC#CCOc1ccc(S(=O)(=O)N2C[C@H](OC)[C@H](O)[C@@H](O)[C@@H]2C(=O)NO)cc1 [Compound (c), (2R,3S,4R,5S)-1-(4′-but-2′-ynyloxybenzenesulfonyl)-3,4-dihydroxy-5-methoxypiperidine-2-carboxylic acid hydroxamide]	2.4	> 790	> 850	> 650

Other lines, results leading:

Ki [1] [nM]	Ki (MMP-9) [nM]	Ki (MMP-1) [nM]	Ki (MMP-3) [nM]	SMILES
18	> 790	> 850	> 650	CO[C@@H]1[C@@H](O)[C@@H](O)CN(S(=O)(=O)c2ccc(OCC#CCO)cc2)[C@H]1C(=O)NO [Compound (f), (2R,3S,4S,5S)-4,5-dihydroxy-1-[4′-(4″-hydroxy-but-2′-ynyloxy)benzenesulfonyl]-3-methoxy-piperidine-2-carboxylic acid hydroxamide]
8.5	> 790	> 850	> 650	CC#CCOc1ccc(S(=O)(=O)N2C[C@H](O)[C@H](O)[C@@H](OCC)[C@@H]2C(=O)NO)cc1 [Compound (e), (2R,3S,4S,5S)-1-(4′-but-2′-ynyloxybenzenesulfonyl)-4,5-dihydroxy-3-ethoxypiperidine-2-carboxylic acid hydroxamide]
4.3	> 790	> 850	> 650	CC#CCOc1ccc(S(=O)(=O)N2C[C@H](O)[C@H](O)[C@@H](OC)[C@@H]2C(=O)NO)cc1 [Compound (a), (2R,3S,4S,5S)-1-(4′-but-2′-ynyloxybenzenesulfonyl)-4,5-dihydroxy-3-methoxypiperidine-2-carboxylic acid hydroxamide]
